Assay results published in PMC3997483, “Aminostyrylbenzofuran Directly Reduces Oligomeric Amyloid-β and Reverses Cognitive Deficits in Alzheimer Transgenic Mice” (PLoS ONE, 2014).

Columns and labels:
APP/PS1 TG mice [1] = assay: Y-maze, prophylactic trial; assay type: in vivo, mouse; conditions: PO 100 mg/kg/day, 5 to 12 months of age
APP/PS1 TG mice [2] = assay: Morris water maze, prophylactic trial; assay type: in vivo, mouse; conditions: TG mice
Protocol: Behavioral tests were performed in the following sequence: Y-maze (day 1), Morris water maze (day 4 to 12) and contextual fear conditioning (day 26 to 27). To reduce stress, contextual fear conditioning was carried out 2 weeks after the Morris water maze task. In the therapeutic trial, APP/PS1 TG mice were treated with KMS88009 (30 mg/kg/day) for 3 months from 9 to 12 months of age. Y-maze tests short-term spatial working memory. Y-maze is a 3-armed (40 L×10 W×12 H cm) horizontal maze in which the arms are symmetrically disposed at 120° angles from each other. Mice were placed at the end of one arm and allowed to move freely through the maze during a 5-min session. Arm entry was considered completed when the hind paws of the mouse were completely placed in the arm. Alternation was defined as successive entries into the 3 arms on overlapping triplet sets. The series of arm entries was recorded via video recorders. The percentage of alternation was defined according to the following equation: % alternation = [(number of alternations)/(total arm entries - 2)] ×100. Mice performing fewer than 7 alternations in 5 min were excluded from the subsequent analysis to accurately determine alternation scores. Morris water maze was used to measure spatial learning and memory. A stainless pool apparatus with a diameter of 120 cm was used. A clear escape platform (circle, 12×12 cm) was located 1.0 cm below (hidden) the water surface containing white nontoxic paint. The temperature of water was kept constant throughout the experiment (21±1°C). The visual cues, for mice to recognize the environment and direction, are placed on the walls around the pool. The training was consisted of 8 consecutive days of testing with 4 trials per day. When a mouse was located on the escape platform, it was permitted to remain on the platform for 15 sec. […] Then the subject was returned to its home cage and allowed to dry up after each trial. The platform location was kept constant and the starting position was varied. Each mouse was placed in the water with their nose pointing toward the wall at one of the starting points in a random manner. During each trial session, the time taken to find the hidden platform (latency) was recorded using a video camera-based Ethovision System (Nodulus, Nertherlands). On the 9th day, each mouse was tested on a probe trial. The platform was removed from pool and the mice were allowed to swim for 60 sec to search. Swimming time was recorded during mice were in the pool quadrant where the platform had been previously located. Mice, which float or jump from platform, were eliminated from the experiment since these responses may be incompatible with the behaviors needed to locate and learn the platform position. In addition, animals with difficulty in swimming were also excluded from this study. Fear conditioning task was measured to test the ability to learn and remember an association between an aversive experience and environmental cues. Contextual fear conditioning evaluation was performed using a fear-conditioning chamber (Courlbourn, USA) equipped with a computer-controlled fear conditioning system (FreActimetrics, USA). On the first day of training, each mouse was placed in the conditioning chamber and left to adjust for 2 min. Fear conditioning test was performed with conditional stimulus (CS) of sound (75 dB) for 20 sec followed by unconditional stimulus (US) of electric foot-shock (0.5 mA) for the last 2 sec in CS. After 1 min, the subject was returned to its home cage. After 24 hr, retention test was performed. […] Freezing response was measured without CS or US. Freezing behavior was defined as the complete absence of any movement except for respiration and heartbeat. Animals with no response to the foot-shock during training were excluded from the analysis. Data analyses including recordings of all behavioral responses were performed by keeping research colleagues blind.

in vitro = conditions: monkey, microsomes

SMILES	frequency of spontaneous alternation (Y-maze) (APP/PS1 TG mice [1]) [%]	Latency (hidden platform) (APP/PS1 TG mice [2]; Day 1, dose group +++ (100 mg/kg/day)) [s]	Latency (hidden platform) (APP/PS1 TG mice [2]; Day 2, dose group +++ (100 mg/kg/day)) [s]	Latency (hidden platform) (APP/PS1 TG mice [2]; Day 3, dose group +++ (100 mg/kg/day)) [s]	Latency (hidden platform) (APP/PS1 TG mice [2]; Day 4, dose group +++ (100 mg/kg/day)) [s]	Latency (hidden platform) (APP/PS1 TG mice [2]; Day 5, dose group +++ (100 mg/kg/day)) [s]	Latency (hidden platform) (APP/PS1 TG mice [2]; Day 6, dose group +++ (100 mg/kg/day)) [s]	Latency (hidden platform) (APP/PS1 TG mice [2]; Day 7, dose group +++ (100 mg/kg/day)) [s]	Latency (hidden platform) (APP/PS1 TG mice [2]; Day 8, dose group +++ (100 mg/kg/day)) [s]	half-life at 5 µM (in vitro) [min]	remaining at 1 h, 5 µM (in vitro) [%]
O[C@H]1[C@H](O)[C@@H](O)[C@H](O)[C@@H](O)[C@@H]1O [Scyllo-inositol, reference compound]	70.0	49.1 ± 2.4	43.1 ± 2.6	44.7 ± 4.2	37.5 ± 4.0	44.6 ± 3.3	39.0 ± 4.3	38.4 ± 4.4	37.2 ± 4.3		
C[C@]12CC[C@H]3[C@@H](CCC4=CC(=O)CC[C@@]43C)[C@@H]1CC[C@@H]2O [Testosterone, reference compound]										23.4 ± 0.5	16 ± 0.4
